Measurements: PubChem BioAssay (NCI)
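Five concentrations, 48 hours, 96-well plates. TGI denotes the concentration required for complete inhibition of growth.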

Legend:
Test in all cases: growth of human tumour cells (NCI), 48 h
786-0 renal = system: 786-0 renal
NCI-H522 lung = system: NCI-H522 lung
KM12 colon = system: KM12 colon
MOLT-4 leukemia = system: MOLT-4 leukemia
SK-MEL-2 melanoma = system: SK-MEL-2 melanoma
OVCAR-4 ovarian = system: OVCAR-4 ovarian
IGROV1 ovarian = system: IGROV1 ovarian
SK-OV-3 ovarian = system: SK-OV-3 ovarian
SK-MEL-28 melanoma = system: SK-MEL-28 melanoma
HT29 colon = system: HT29 colon
MCF7 breast = system: MCF7 breast
ACHN renal = system: ACHN renal
UO-31 renal = system: UO-31 renal
SW-620 colon = system: SW-620 colon
HCT-116 colon = system: HCT-116 colon
SF-539 CNS = system: SF-539 CNS
NCI-H23 lung = system: NCI-H23 lung
OVCAR-3 ovarian = system: OVCAR-3 ovarian
SF-268 CNS = system: SF-268 CNS
EKVX NSCLC = system: EKVX NSCLC
MDA-MB-435 = system: MDA-MB-435
SK-MEL-5 melanoma = system: SK-MEL-5 melanoma
NCI-H460 lung = system: NCI-H460 lung
HOP-92 NSCLC = system: HOP-92 NSCLC
HOP-62 NSCLC = system: HOP-62 NSCLC
MALME-3M melanoma = system: MALME-3M melanoma
UACC-62 melanoma = system: UACC-62 melanoma
SN12C renal = system: SN12C renal
M14 melanoma = system: M14 melanoma
U251 CNS = system: U251 CNS
HCC-2998 colon = system: HCC-2998 colon
MDA-MB-231 breast = system: MDA-MB-231 breast
CAKI-1 renal = system: CAKI-1 renal
TK-10 renal = system: TK-10 renal
RXF 393 renal = system: RXF 393 renal
HL-60(TB) leukemia = system: HL-60(TB) leukemia
NCI/ADR-RES ovarian = system: NCI/ADR-RES ovarian
CCRF-CEM leukemia = system: CCRF-CEM leukemia
LOX IMVI melanoma = system: LOX IMVI melanoma
SF-295 CNS = system: SF-295 CNS
A498 renal = system: A498 renal
SR leukemia = system: SR leukemia
HCT-15 colon = system: HCT-15 colon
OVCAR-8 ovarian = system: OVCAR-8 ovarian
SNB-75 CNS = system: SNB-75 CNS
A549 NSCLC = system: A549 NSCLC
T-47D breast = system: T-47D breast
PC-3 prostate = system: PC-3 prostate
SNB-19 CNS = system: SNB-19 CNS
K-562 leukemia = system: K-562 leukemia
UACC-257 melanoma = system: UACC-257 melanoma
OVCAR-5 ovarian = system: OVCAR-5 ovarian
DU-145 prostate = system: DU-145 prostate
COLO 205 colon = system: COLO 205 colon
NCI-H226 lung = system: NCI-H226 lung

## O=CC12c3ccccc3C(c3ccccc31)C1C(=O)NC(=O)C12 (stereo not given)
786-0 renal
  TGI: > 100 µM
NCI-H522 lung
  TGI: > 100 µM
KM12 colon
  TGI: > 100 µM
MOLT-4 leukemia
  TGI: > 100 µM
SK-MEL-2 melanoma
  TGI: > 100 µM
OVCAR-4 ovarian
  TGI: > 100 µM
IGROV1 ovarian
  TGI: > 100 µM
SK-OV-3 ovarian
  TGI: > 100 µM
SK-MEL-28 melanoma
  TGI: > 100 µM
HT29 colon
  TGI: > 100 µM
MCF7 breast
  TGI: 47.7 µM
ACHN renal
  TGI: > 100 µM
UO-31 renal
  TGI: > 100 µM
SW-620 colon
  TGI: > 100 µM
HCT-116 colon
  TGI: > 100 µM
SF-539 CNS
  TGI: > 100 µM
NCI-H23 lung
  TGI: > 100 µM
OVCAR-3 ovarian
  TGI: > 100 µM
SF-268 CNS
  TGI: > 100 µM
EKVX NSCLC
  TGI: > 100 µM
MDA-MB-435
  TGI: > 100 µM
SK-MEL-5 melanoma
  TGI: > 100 µM
NCI-H460 lung
  TGI: > 100 µM
HOP-92 NSCLC
  TGI: > 100 µM
HOP-62 NSCLC
  TGI: > 100 µM
MALME-3M melanoma
  TGI: > 100 µM
UACC-62 melanoma
  TGI: > 100 µM
SN12C renal
  TGI: > 100 µM
M14 melanoma
  TGI: > 100 µM
U251 CNS
  TGI: > 100 µM
HCC-2998 colon
  TGI: > 100 µM
MDA-MB-231 breast
  TGI: > 100 µM
CAKI-1 renal
  TGI: > 100 µM
TK-10 renal
  TGI: > 100 µM
RXF 393 renal
  TGI: > 100 µM
HL-60(TB) leukemia
  TGI: > 100 µM
NCI/ADR-RES ovarian
  TGI: > 100 µM
CCRF-CEM leukemia
  TGI: > 100 µM
LOX IMVI melanoma
  TGI: > 100 µM
SF-295 CNS
  TGI: > 100 µM
A498 renal
  TGI: 48.2 µM
SR leukemia
  TGI: > 100 µM
HCT-15 colon
  TGI: > 100 µM
OVCAR-8 ovarian
  TGI: > 100 µM
SNB-75 CNS
  TGI: > 100 µM
A549 NSCLC
  TGI: > 100 µM
T-47D breast
  TGI: > 100 µM
PC-3 prostate
  TGI: > 100 µM
SNB-19 CNS
  TGI: > 100 µM
K-562 leukemia
  TGI: > 100 µM
UACC-257 melanoma
  TGI: > 100 µM
OVCAR-5 ovarian
  TGI: > 100 µM
DU-145 prostate
  TGI: > 100 µM
COLO 205 colon
  TGI: > 100 µM
NCI-H226 lung
  TGI: > 100 µM
